Measurements reported in PMC6476959, “Novel 3,4-Dihydroisocoumarins Inhibit Human P-gp and BCRP in Multidrug Resistant Tumors and Demonstrate Substrate Inhibition of Yeast Pdr5” (Frontiers in Pharmacology, 2019).

Test system: S. cerevisiae strain expressing Pdr5 WT
Assay: Liquid drug assay, yeast strain expressing Pdr5 WT
Assay type: cell-based, Saccharomyces cerevisiae
Conditions: serial dilutions, 48 h, 30°C, OD600
Description: The following S. cerevisiae yeast strain was used: YRE1001 (MATa ura3-52 trp1-1 leu2-3,112 his3-11,15 ade2-1 pdr1-3 pdr5pdr5promΔ::TRP1). S. cerevisiae was cultured in YPD medium (10 g/L yeast extract, 20 g/L peptone, 2% glucose) at 30°C and 200 rpm. The yeast strain has been described previously ([Ernst et al., 2008]; [Gupta et al., 2014]). Based on these studies it is evident that Pdr5 localizes to the PM and is present in approximately 10% of the overall membrane protein content of the PM.
The liquid drug assay was carried out in sterile 96-well plates. 50 μl of yeast cell culture at an OD600 of 0.15 were mixed with 193.75 μl YPD and 6.25 μl of the test compound or DMSO as a negative control. To distinguish between cytotoxic compounds and those which inhibit Pdr5 WT specifically, the Pdr5 substrate ketoconazole was added only to cultures expressing wild-type Pdr5 in a final concentration of 1 μg/ml. At this concentration, inhibition of Pdr5 would result in ketoconazole-mediated cell death. After 48 h at 30°C the growth was measured with an ELISA plate reader (BioRad, Hercules, CA, United States) at 595 nm.

CCCCCC1Cc2cc(OC)cc(OC)c2C(=O)O1 (stereo not shown) [Compound 16a]
Effect on growth of yeast strain expressing Pdr5 WT: no effect on the wild-type strain
